# Measured values published in patent publication US8883745B2, “C—glycolipids with enhanced Th-1 profile” (New York University, priority 2006, dated 2014).
# Experiments:
# IL-12 = IL-12 levels in sera upon i.v. glycolipid administration to C57BL/6 mice (ELISA); type: in vivo; parameters: IL-12 levels, test 1 / IL-12 levels, test 2 / IL-12 levels, average / IL-12 levels, Total: unit not given here; conditions: for IL-12/IL-4 (B6): C57BL/6, ratio calculated from Tables 1-6; for IL-12 levels, average / IL-12 levels, test 1 / IL-12 levels, test 2 / IL-12 levels, Total: C57BL/6, serum; for IL-12 levels, Total: total over hours 0-72
# Protocol: (§1) Five- to six-week-old female C57BL/6 mice and BALB/c mice were purchased from Taconic. Each glycolipid was stored at 1 mg/ml in 100% DMSO. Mice were injected intravenously with 1 μg of each glyocolipid diluted in 200 μL sterile phosphate buffered saline (PBS). At indicated time points, sera were collected from each animal, and concentrations of IFN-γ, IL-4, and IL-12 in the sera were evaluated by enzyme-linked immunosorbent assay (ELISA). Serum concentrations of IFN-γ, IL-4, and IL-12 were evaluated using an ELISA kit (eBioscience, San Diego, Calif.). Briefly, 96 well flat-bottom ELISA plates (NUNC) were coated with capture antibody according to the manufacture's recommendation and incubated overnight at 4° C. The plates were washed with PBS+0.05% Tween 20 (PBS-T), then incubated with manufacturer provided blocking solution for 1 hr at room temperature to block non-specific binding sites. After washing with PBS-T, sera diluted 1:10 was added to the wells and incubated for 2 hrs at room temperature. Plates were then incubated at room temperature for 1 hr with biotintylated detection antibody, washed, incubated with avidin conjugated to horse radish peroxidase (HRP) for 30 min at room temperature, washed, and finally incubated with tetramethylbenzidine substrate solution in the dark for 10 minutes at room temperature. The antibodies, avidin-HRP, and substrate solution were all diluted according to the manufacture's recommendation. Reactions were stopped with 2.0N sulfuric acid and the cytokine concentration in each well was determined by comparing the absorbance at 450 nm in each well to known standards. The levels of Th1- and Th2-type cytokines were determined in two different genetic backgrounds, i.e., in C57BL/6 mice and BALB/c mice. The following compounds were administered: A=compound (A-1 trans-conformer), B=compound (A-2), C=compound (A-3), D=compound (A-4), E=compound (A-5), Z=control (PBS alone), CRONY=α-C-GalCer, KRN=α-GalCer, GCK109 (A-1 trans-conformer), GCK151 (A-1 cis-conformer), GCK152 (A-7). The levels of cytokines were measured at 0, 2, 6, 12, 24, 48, and 72 hours after the compound administration. The levels of Th1-type cytokines IFN-γ and IL-12 are summarized in FIGS. 2A-C and 3A-C, respectively. Table 7 provides IFN-γ/IL-4 and IL-12/IL-4 ratios for various compounds, which can be used as indicators of their ability to selectively stimulate Th1-type immune responses.
# IL-4 = IL-4 levels in sera upon i.v. glycolipid administration to C57BL/6 mice (ELISA); type: in vivo; parameters: unit not given here; conditions: for IL-4 level, Total: total over hours 0-72
# Protocol: as §1
smiles,measurement,setting,value
CCCCCCCCCCCCCC[C@@H](O)[C@@H](O)[C@H](CC[C@H]1O[C@H](CO)[C@H](O)[C@H](O)[C@H]1O)NC(=O)CCCCCCCCCCCCCCCCCCCOCCCCC [A-5],IL-12/IL-4 (B6),IL-12,3.4
same,"IL-12 levels, average",IL-12; hour 0,5
same,"IL-12 levels, test 1",IL-12; hour 0,5
same,"IL-12 levels, test 2",IL-12; hour 0,5
same,"IL-12 levels, average",IL-12; hour 2,115.5
same,"IL-12 levels, test 1",IL-12; hour 2,117
same,"IL-12 levels, test 2",IL-12; hour 2,114
same,"IL-12 levels, average",IL-12; hour 6,1346.5
same,"IL-12 levels, test 1",IL-12; hour 6,1351
same,"IL-12 levels, test 2",IL-12; hour 6,1342
same,"IL-12 levels, average",IL-12; hour 12,518.5
same,"IL-12 levels, test 1",IL-12; hour 12,535
same,"IL-12 levels, test 2",IL-12; hour 12,502
same,"IL-12 levels, average",IL-12; hour 24,87
same,"IL-12 levels, test 1",IL-12; hour 24,96
same,"IL-12 levels, test 2",IL-12; hour 24,78
same,"IL-12 levels, average",IL-12; hour 48,58
same,"IL-12 levels, test 1",IL-12; hour 48,52
same,"IL-12 levels, test 2",IL-12; hour 48,64
same,"IL-12 levels, average",IL-12; hour 72,49.5
same,"IL-12 levels, test 1",IL-12; hour 72,46
same,"IL-12 levels, test 2",IL-12; hour 72,53
same,"IL-12 levels, Total",IL-12,2182
same,"IL-4 level, average",IL-4; hour 0,46
same,"IL-4 level, test 1",IL-4; hour 0,46
same,"IL-4 level, test 2",IL-4; hour 0,46
same,"IL-4 level, average",IL-4; hour 2,308
same,"IL-4 level, test 1",IL-4; hour 2,283
same,"IL-4 level, test 2",IL-4; hour 2,333
same,"IL-4 level, average",IL-4; hour 6,89
same,"IL-4 level, test 1",IL-4; hour 6,75
same,"IL-4 level, test 2",IL-4; hour 6,103
same,"IL-4 level, average",IL-4; hour 12,45
same,"IL-4 level, test 1",IL-4; hour 12,42
same,"IL-4 level, test 2",IL-4; hour 12,48
same,"IL-4 level, average",IL-4; hour 24,50
same,"IL-4 level, test 1",IL-4; hour 24,46
same,"IL-4 level, test 2",IL-4; hour 24,54
same,"IL-4 level, average",IL-4; hour 48,46
same,"IL-4 level, test 1",IL-4; hour 48,44
same,"IL-4 level, test 2",IL-4; hour 48,48
same,"IL-4 level, average",IL-4; hour 72,64.5
same,"IL-4 level, test 1",IL-4; hour 72,69
same,"IL-4 level, test 2",IL-4; hour 72,60
same,"IL-4 level, Total",IL-4,649
CCCCCCCCCCCCCCCCCC/C=C/CCCCCCCCC(=O)N[C@@H](/C=C/[C@H]1O[C@H](CO)[C@H](O)[C@H](O)[C@H]1O)[C@H](O)[C@H](O)CCCCCCCCCCCCCC [A-1],IL-12/IL-4 (B6),IL-12,2.9
same,"IL-12 levels, average",IL-12; hour 0,5
same,"IL-12 levels, test 1",IL-12; hour 0,5
same,"IL-12 levels, test 2",IL-12; hour 0,5
same,"IL-12 levels, average",IL-12; hour 2,20
same,"IL-12 levels, test 1",IL-12; hour 2,40
same,"IL-12 levels, test 2",IL-12; hour 2,0
same,"IL-12 levels, average",IL-12; hour 6,2181.5
same,"IL-12 levels, test 1",IL-12; hour 6,1993
same,"IL-12 levels, test 2",IL-12; hour 6,2370
same,"IL-12 levels, average",IL-12; hour 12,2071
same,"IL-12 levels, test 1",IL-12; hour 12,1790
same,"IL-12 levels, test 2",IL-12; hour 12,2352
same,"IL-12 levels, average",IL-12; hour 24,54
same,"IL-12 levels, test 1",IL-12; hour 24,30
same,"IL-12 levels, test 2",IL-12; hour 24,78
same,"IL-12 levels, average",IL-12; hour 48,0
same,"IL-12 levels, test 1",IL-12; hour 48,0
same,"IL-12 levels, test 2",IL-12; hour 48,0
same,"IL-12 levels, average",IL-12; hour 72,0
same,"IL-12 levels, test 1",IL-12; hour 72,0
same,"IL-12 levels, test 2",IL-12; hour 72,0
same,"IL-12 levels, Total",IL-12,4332
same,"IL-4 level, average",IL-4; hour 0,46
same,"IL-4 level, test 1",IL-4; hour 0,46
same,"IL-4 level, test 2",IL-4; hour 0,46
same,"IL-4 level, average",IL-4; hour 2,1088
same,"IL-4 level, test 1",IL-4; hour 2,914
same,"IL-4 level, test 2",IL-4; hour 2,1262
same,"IL-4 level, average",IL-4; hour 6,109
same,"IL-4 level, test 1",IL-4; hour 6,90
same,"IL-4 level, test 2",IL-4; hour 6,128
same,"IL-4 level, average",IL-4; hour 12,55
same,"IL-4 level, test 1",IL-4; hour 12,44
same,"IL-4 level, test 2",IL-4; hour 12,66
same,"IL-4 level, average",IL-4; hour 24,56.5
same,"IL-4 level, test 1",IL-4; hour 24,57
same,"IL-4 level, test 2",IL-4; hour 24,56
same,"IL-4 level, average",IL-4; hour 48,44
same,"IL-4 level, test 1",IL-4; hour 48,47
same,"IL-4 level, test 2",IL-4; hour 48,41
same,"IL-4 level, average",IL-4; hour 72,88
same,"IL-4 level, test 1",IL-4; hour 72,61
same,"IL-4 level, test 2",IL-4; hour 72,115
same,"IL-4 level, Total",IL-4,1487
